Data from US20250026742A1 (SUZHOU ARK BIOPHARMACEUTICAL CO., LTD., priority 2021, published 2025).
Where a name gives a salt, the structure may show the parent alone.

How the values were obtained:
[1] = target: ATR kinase (Homo sapiens (Human), UniProt Q13535); assay: ATR enzyme activity inhibition assay (HTRF); type: biochemical; conditions: p53 substrate, full-length ATR enzyme
Method: The inhibitory ability to ATR kinase for selected compounds was tested by the HTRF (Homogeneous Time-Resolved Fluorescence). In the reaction system, After the substrate p53 is phosphorylated by ATR, the anti-phospho-p53-Eu that serves as an energy donor and specifically binds to the phosphorylation site on p53 is added. Then, the anti-GST-d2 as an energy acceptor that specifically binds to the GST tag carried on p53 is added. […] The IC50 of the sample to be tested can be obtained through graphing and calculation.
Prepare various buffer systems required for the experiment: • 1. […] Prepare detection buffer: Dilute each of the anti-phospho-p53-Eu cryptate (Cisbio, Cat #61P08KA) and anti-GST-d2 (Cisbio, Cat #61GSTDLB) to 1 unit using HTRF detection buffer (Cisbio, Cat #62SDBRDF).
Powdered compounds were dissolved in DMSO to from a stock solution at a concentration of 10 mM. The solution of compounds to be tested at a concentration of […] was performed a 3-fold dilution for 10 concentrations with DMSO. […] 5 μL of ATR was added to each well accordingly. Each well is incubated at 25° C. for 10 min, added with 5 μL of reaction substrate, incubated at 25° C. for 90 min and added with 10 μL of detection solution. […] The inhibition curves of the compounds were made by the four-parameter […] regression equation of XLfit software, and the inhibition rates of the compounds were calculated.

[2] = system: human lung cancer NCI-H23 cells; assay: In vivo pharmacodynamics in the NCI-H23 subcutaneous graft tumor model; set-up: species or system CB.17/SCID mouse; conditions: for TGI (%) / Tumor change (%): 14 days after administration; for TGI (%) / Tumor change (%) / Tumor volume (mm^3) day 0 / Tumor volume (mm^3) day 14: 12.5 mg/kg PO QD + Cisplatin 1.5 mg/kg IP QW, NCI-H23 xenograft, CB.17/SCID mice; for body weight of mice after drug administration / decrease in tumor volume compared to the Cisplatin+VX-970 group: combination with Cisplatin; for body weight of mice after drug administration: no difference in body weight loss between the groups (FIG. 1); for decrease in tumor volume compared to the Cisplatin+VX-970 group: p<0.05 in T-test (FIGS. 2 and 3); for Tumor volume (mm^3) day 0: day 0 (start of administration); for Tumor volume (mm^3) day 14: 2 weeks
Method: • 1, cell culture: human lung cancer NCI-H23 cells (ATCC, Item No.: CRL-5800) are performed with an in vitro monolayer culture. […] Trypsin-EDTA was used for conventional digestion and treatment of passaging twice a week. When the cell saturation is […] and the number meets the requirement, the cells are collected, counted and inoculated. • 2, Animals: CB.17/SCID mouse, female, 6-8 weeks old, weighing 18-22 grams. A total of 84 mice are needed, which are provided by Beijing Viton Lihua Laboratory Animal Technology Co., Ltd. or equivalent qualified suppliers. • 3.
• 4. Tumor inoculation: 0.2 mL (10×10^6 cells) of NCI-H23 cells (plus stromal gel, volume ratio 1:1) were subcutaneously inoculated into the right back of each mouse. Mice are grouped for drug administration when the average tumor volume reached about 200 mm^3. Animals were weighed before dosing and tumor volumes were measured. Groups were randomized according to tumor volume (randomized area group design).
• 1 ? The experimental index is to examine whether the tumor growth is inhibited, delayed or cured. […] Calculation of Tumor change (%): Tumor change (%)=(average tumor volume at the end of administration of a treatment group−average tumor volume at the beginning of administration of a treatment group)/average tumor volume at the beginning of administration of a treatment group×100%. Tumor change (%): less than 0, non-growth of the tumor in the mice after the drug administration, and the existence of inhibition. • 6.

ATR kinase, sequence (Q13535 whole entry): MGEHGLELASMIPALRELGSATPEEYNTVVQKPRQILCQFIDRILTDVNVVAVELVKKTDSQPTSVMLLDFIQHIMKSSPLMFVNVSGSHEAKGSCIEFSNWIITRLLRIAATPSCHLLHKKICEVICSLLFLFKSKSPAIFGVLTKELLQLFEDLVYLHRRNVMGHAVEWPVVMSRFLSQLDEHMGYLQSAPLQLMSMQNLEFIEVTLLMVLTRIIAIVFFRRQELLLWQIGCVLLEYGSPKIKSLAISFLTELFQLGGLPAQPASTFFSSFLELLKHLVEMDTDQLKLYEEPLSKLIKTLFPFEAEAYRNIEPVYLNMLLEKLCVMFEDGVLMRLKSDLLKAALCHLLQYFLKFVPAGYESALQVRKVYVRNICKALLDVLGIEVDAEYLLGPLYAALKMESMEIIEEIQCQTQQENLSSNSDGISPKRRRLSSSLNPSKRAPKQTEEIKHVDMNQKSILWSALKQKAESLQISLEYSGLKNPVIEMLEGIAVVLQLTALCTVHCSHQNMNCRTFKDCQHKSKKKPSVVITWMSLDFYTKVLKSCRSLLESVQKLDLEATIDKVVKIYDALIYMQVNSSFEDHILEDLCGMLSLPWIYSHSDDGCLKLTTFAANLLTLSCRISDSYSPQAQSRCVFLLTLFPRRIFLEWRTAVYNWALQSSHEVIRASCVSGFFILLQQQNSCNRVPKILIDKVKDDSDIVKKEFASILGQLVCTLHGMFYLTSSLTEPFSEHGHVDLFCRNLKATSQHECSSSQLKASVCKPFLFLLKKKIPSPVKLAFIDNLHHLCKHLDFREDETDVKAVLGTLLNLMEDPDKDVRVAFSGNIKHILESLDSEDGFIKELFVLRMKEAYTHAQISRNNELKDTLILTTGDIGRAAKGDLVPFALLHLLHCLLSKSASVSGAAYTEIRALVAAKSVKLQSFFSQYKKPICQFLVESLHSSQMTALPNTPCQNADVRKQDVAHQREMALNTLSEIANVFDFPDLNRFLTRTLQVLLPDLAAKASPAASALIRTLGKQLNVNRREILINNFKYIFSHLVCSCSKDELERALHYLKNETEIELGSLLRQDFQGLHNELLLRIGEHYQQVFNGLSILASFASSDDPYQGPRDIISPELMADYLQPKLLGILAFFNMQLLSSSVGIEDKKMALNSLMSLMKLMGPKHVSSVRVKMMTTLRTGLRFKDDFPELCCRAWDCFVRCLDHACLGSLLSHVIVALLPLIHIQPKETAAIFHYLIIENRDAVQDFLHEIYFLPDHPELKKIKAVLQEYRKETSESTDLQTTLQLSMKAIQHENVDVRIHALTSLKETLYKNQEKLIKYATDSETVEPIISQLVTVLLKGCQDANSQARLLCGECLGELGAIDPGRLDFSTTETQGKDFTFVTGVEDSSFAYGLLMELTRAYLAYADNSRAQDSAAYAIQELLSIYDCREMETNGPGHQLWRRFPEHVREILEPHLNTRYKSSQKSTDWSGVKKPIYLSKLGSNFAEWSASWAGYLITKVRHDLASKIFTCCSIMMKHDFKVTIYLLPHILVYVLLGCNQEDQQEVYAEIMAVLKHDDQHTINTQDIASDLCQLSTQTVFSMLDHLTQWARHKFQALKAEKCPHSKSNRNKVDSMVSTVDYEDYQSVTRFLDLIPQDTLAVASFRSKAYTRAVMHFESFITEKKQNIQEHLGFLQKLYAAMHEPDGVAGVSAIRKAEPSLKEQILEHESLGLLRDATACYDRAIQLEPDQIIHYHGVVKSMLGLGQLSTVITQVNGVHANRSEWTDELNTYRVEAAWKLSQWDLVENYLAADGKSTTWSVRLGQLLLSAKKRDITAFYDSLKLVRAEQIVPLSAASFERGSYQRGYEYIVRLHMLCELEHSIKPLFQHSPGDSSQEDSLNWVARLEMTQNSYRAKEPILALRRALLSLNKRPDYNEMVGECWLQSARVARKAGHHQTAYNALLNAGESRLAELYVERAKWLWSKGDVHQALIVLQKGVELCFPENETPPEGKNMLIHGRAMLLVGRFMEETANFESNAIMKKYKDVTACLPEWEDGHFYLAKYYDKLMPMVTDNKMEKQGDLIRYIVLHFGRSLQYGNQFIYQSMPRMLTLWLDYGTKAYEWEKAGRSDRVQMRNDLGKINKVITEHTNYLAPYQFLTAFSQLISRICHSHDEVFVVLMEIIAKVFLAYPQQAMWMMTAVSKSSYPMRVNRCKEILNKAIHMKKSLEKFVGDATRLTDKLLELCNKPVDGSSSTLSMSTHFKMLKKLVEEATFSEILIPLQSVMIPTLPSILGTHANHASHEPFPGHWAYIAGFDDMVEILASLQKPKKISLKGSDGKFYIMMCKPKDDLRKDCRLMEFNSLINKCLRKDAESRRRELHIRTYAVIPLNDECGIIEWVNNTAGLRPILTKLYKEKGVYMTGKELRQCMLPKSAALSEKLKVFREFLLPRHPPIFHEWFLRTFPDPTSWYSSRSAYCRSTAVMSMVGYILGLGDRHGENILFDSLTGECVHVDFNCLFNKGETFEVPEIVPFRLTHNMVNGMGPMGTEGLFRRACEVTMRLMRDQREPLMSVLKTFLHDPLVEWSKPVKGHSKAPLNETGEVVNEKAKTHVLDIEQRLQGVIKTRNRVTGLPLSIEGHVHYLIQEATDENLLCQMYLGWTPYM
ATR kinase, sequence (Q8WXE1 whole entry partner): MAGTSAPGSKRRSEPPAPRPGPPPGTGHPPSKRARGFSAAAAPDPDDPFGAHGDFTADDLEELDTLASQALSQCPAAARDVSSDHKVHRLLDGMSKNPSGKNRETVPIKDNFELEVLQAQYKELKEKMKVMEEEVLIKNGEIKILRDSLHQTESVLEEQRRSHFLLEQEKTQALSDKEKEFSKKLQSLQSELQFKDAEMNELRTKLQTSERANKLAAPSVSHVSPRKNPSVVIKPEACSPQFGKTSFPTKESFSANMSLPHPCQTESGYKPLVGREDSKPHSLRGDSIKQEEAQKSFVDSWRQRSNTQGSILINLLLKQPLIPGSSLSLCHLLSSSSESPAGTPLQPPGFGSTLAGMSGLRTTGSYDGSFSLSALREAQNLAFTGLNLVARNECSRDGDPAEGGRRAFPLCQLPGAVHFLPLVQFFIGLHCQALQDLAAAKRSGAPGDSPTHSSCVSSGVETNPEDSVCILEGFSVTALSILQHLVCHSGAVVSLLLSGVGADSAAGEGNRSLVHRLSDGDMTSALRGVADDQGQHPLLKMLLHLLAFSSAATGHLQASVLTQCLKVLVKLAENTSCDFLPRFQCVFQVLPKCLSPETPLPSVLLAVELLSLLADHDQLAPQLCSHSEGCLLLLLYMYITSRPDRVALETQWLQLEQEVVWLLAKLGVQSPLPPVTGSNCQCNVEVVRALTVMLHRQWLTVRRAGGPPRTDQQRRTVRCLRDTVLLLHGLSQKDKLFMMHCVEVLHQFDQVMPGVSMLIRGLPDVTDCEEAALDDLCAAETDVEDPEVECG

Compound | IC50 [1] [nM] | TGI (%) [2] [%] | Tumor change (%) [2] [%] | body weight of mice after drug administration [2] | decrease in tumor volume compared to the Cisplatin+VX-970 group [2] | Tumor volume (mm^3) day 0 [2] [mm^3] | Tumor volume (mm^3) day 14 [2] [mm^3] | Tumor change (%) ([2]; listed as VX970)
(R)-5-(5-amino-6-(5-(4-((methylamino)methylene)phenyl)-1,3,4-oxadiazol-2-yl)pyrazin-2-yl)-3-fluoro-2,2-dimethyl-2,3-dihydrobenzo[b]thiophene 1,1-dioxide or (S)-5-(5-amino-6-(5-(4-((methylamino)methylene)phenyl)-1,3,4-oxadiazol-2-yl)pyrazin-2-yl)-3-fluoro-2,2-dimethyl-2,3-dihydrobenzo[b]thiophene 1,1-dioxide [Example 33-1 or 33-2] | 0.83 | 245 | −66 | decrease in body weight | more obvious decrease in tumor volume | 267 | 92 | –
(R)-5-(5-amino-6-(3-(4-((methylamino)methyl)phenyl)isoxazol-5-yl-4-deuterium)pyrazin-2-yl)-3-fluoro-2,2-dimethyl-2,3-dihydrobenzo[b]thiophene 1,1-dioxide or (S)-5-(5-amino-6-(3-(4-((methylamino)methyl)phenyl)isoxazol-5-yl-4-deuterium)pyrazin-2-yl)-3-fluoro-2,2-dimethyl-2,3-dihydrobenzo[b]thiophene 1,1-dioxide [Example 38-1 or 38-2] | 0.75 | 159 | −29 | decrease in body weight | more obvious decrease in tumor volume | 252 | 180 | –
CNCc1ccc(-c2cc(-c3nc(-c4ccc(S(=O)(=O)C(C)C)cc4)cnc3N)on2)cc1 [VX-970, Berzosertib, reference compound] | – | 128 | −12 | decrease in body weight | – | 266 | 231 | −13
CN(C)S(=O)(=O)c1ccc(-c2cnc(N)c(-c3cc(-c4ccc(CNC(=N)N)cc4)no3)n2)cc1 [Example 10, 4-(5-amino-6-(3-(4-(guanidinomethyl)phenyl)isoxazol-5-yl)pyrazin-2-yl)-N,N-dimethylbenzenesulfonamide dihydrochloride] | 1.75 | – | – | – | – | – | – | –
CN(C)C(=O)c1ccc(-c2cnc(N)c(-c3cc(-c4ccc(CNC(=N)N)cc4)no3)n2)cc1 [Example 25, 4-(5-amino-6-(3-(4-(guanidinomethyl)phenyl)isoxazol-5-yl)pyrazin-2-yl)-N,N-dimethylbenzamide dihydrochloride] | 1.98 | – | – | – | – | – | – | –
CC(C)S(=O)(=O)c1ccc(-c2cnc(N)c(-c3cc(-c4ccc(CNC(=O)NC5CC5)cc4)no3)n2)cc1 [Example 5, 1-(4-(5-(3-amino-6-(4-(isopropylsulfonyl)phenyl)pyrazin-2-yl)isoxazol-3-yl)benzyl)-3-cyclopropylurea] | 2.32 | – | – | – | – | – | – | –
(R)-5-(5-amino-6-(3-(4-((methylamino)methyl)phenyl)isoxazol-5-yl)pyrazin-2-yl)-3-fluoro-2,2-dimethyl-2,3-dihydrobenzo[b]thiophene 1,1-dioxide or (S)-5-(5-amino-6-(3-(4-((methylamino)methyl)phenyl)isoxazol-5-yl)pyrazin-2-yl)-3-fluoro-2,2-dimethyl-2,3-dihydrobenzo[b]thiophene 1,1-dioxide [Example 35-1 or 35-2] | 0.41 | – | – | – | – | – | – | –
CC(C)S(=O)(=O)c1ccc(-c2cnc(N)c(-c3cc(-c4ccc5c(c4)CNC5=O)no3)n2)cc1 [Example 31] | 4 | – | – | – | – | – | – | –
